Laboratory results reported in US20170189496A1, “USE OF PHOSPHORYLATION PATHWAY-RELATED FACTOR IN REGULATING FUNCTION OF REGULATORY T CELL” (Institut Pasteur of Shanghai, Chinese Academy of Sciences, priority 2012, published 2017).
“Also recorded” adds a separate entry of the source.

Legend:
Assay type in all cases: cell-based
[1] = test system: induced Treg cells from human CD4+ CD45RA+ natural T cells; experiment: FOXP3 and CTLA4 expression in induced Treg (flow cytometry); settings: 50 uM, 48 h, vs DMSO control group
Method: Human CD4+ CD45RA+ natural T cells (i.e., natural T cells rather than Treg cells) were sorted by BD FACS Aria II flow sorter and expanded by Bead-CD3/CD28 (2:1), IL-2 (100 U/ml), and TGF-β (1 ng/ml, 3 ng/ml, and 5 ng/ml) for 5 days. DMSO or kaempferol (50 uM) was added and treated for 48 h. Flow cytometry analysis was performed after PE-FOXP3 (FIG. 14B) and APC-CTLA4 (FIG. 14A) antibody staining.
Human CD4+ CD45RA+ natural T cells (i.e., natural T cells rather than Treg cells) were sorted by BD FACS Aria II flow sorter and expanded using Bead-CD3/CD28 (2:1). IL-2 (100 U/ml), and TGF-β (1 ng/ml, 3 ng/ml, and 5 ng/ml) for 5 days to obtain the induced Treg cells. DMSO or kaempferol (50 uM) was added and treated for 48 h.

[2] = test system: Jurkat cells stably expressing HA-FOXP3; experiment: FOXP3 protein degradation induced by PMA/LPS in Jurkat cells stably expressing HA-FOXP3 (immunoblot); settings: PMA 25 ng/ml + LPS 1 ng/ml, 24 h; kaempferol 50 μM, PIM1 inhibitor 100 nM, PI3K inhibitor 10 μg/ml; DMSO control
Method: HA-FOXP3-Jurkat stable expression cells were treated with PMA (25 ng/ml) and LPS (1 ng/ml). 50 μM kaempferol, 100 nM PIM1 inhibitors (specifically of 4-[3-(4-chlorophenyl)-2,1-benzisoxazol-5-yl]-2-pyrimidinamine), and 10 μg/ml PI3K inhibitor (LY294002) were added, and DMSO as a control. Cells were collected 24 h later. The levels of FOXP3 and GAPDH were detected directly by immunoblot.
Human embryonic kidney cell line HEK293 was co-transfected with FUGW-HA-FOXP3, del 8.9 and VSV-G. Cell culture supernatants were collected 48 h and 72 h after transfection. Viruses were purified by ultracentrifugation and used to infect Jurkat E6.1 to ultimately obtain Jurkat cell lines stably expressing HA-FOXP3.
(§1) Protein samples were subjected to SDS-PAGE, and then transferred to nitrocellulose membrane, which was then sealed in TBST containing 5% nonfat dry milk or 3% bovine serum albumin for 1 h. Primary antibody was added and incubated for 1 h and then HRP-conjugated secondary antibody was added and incubated for 1 h, and results shown by exposure with ECL substrates.
Jurkat cells stably expressing HA-FOXP3 were treated with PMA (25 ng/ml) and LPS (1 ng/ml). Each sample was added 50 μM kaempferol, 100 nM PIM1 inhibitor (i.e., 4-[3-(4-chlorophenyl)-2,1-benzisoxazol-5-yl]-2-pyrimidinamine), and 10 μg/ml PI3K inhibitor (LY294002). DMSO serves as a control. Cells were collected after 24 h.

PIM1 [3] = biological target: T1, PIM1 (Homo sapiens, UniProt P11309); experiment: Histone H3 S10 phosphorylation induced by PIM1 in HEK293T cells (immunoblot); parameters: expressed in transfected cells; host or cells: HEK293T; settings: 50 μM, 12 h
Method: FLAG-PIM1 was transfected into HEK293T cells. 36 h later, cells were treated with 50 μM of kaempferol for 12 h. 48 h after cell transfection, cells were treated in whole cell lysis solution. The levels of phosphorylated (Phospho)-histone H3S10, histone H3, and PIM1 were detected directly by immunoblot.
(§2) FLAG-PIM1 was transfected and MYC-FOXP3 and FLAG-PIM1 co-transfected into HEK293T cells. After 36 h, HEK293 was used as blank control group and each group was treated with 50 μM of kaempferol for 12 h. After 48 h, cells collected and lysed by cell lysis buffer. The levels of pS422-FOXP3, FOXP3, phosphorylated-histone H3 (Ser10), histone H3, and GAPDH were detected directly by immunoblot.
as §1
HEK293T cells were co-transfected with MYC-FOXP3 and FLAG-PIM1. 36 h later, cells were treated with 50 μM of kaempferol for 12 h. Cells were collected at 48h after transfection and directly sonicated in SDS-loading buffer, and lysed by boiling.
HEK293T cells were transfected with FLAG-PIM1, and co-transfected with MYC-FOXP3 and FLAG-PIM1. 36 h later, HEK293 was used as blank control group and each group was treated with 50 μM of kaempferol for 12 h, respectively. Cells were collected alter 48 h and lysed with cell lysis buffer. The levels of pS422-FOXP3, FOXP3, histone H3 Ser10 phosphorylation, histone H3, and GAPDH were directly detected by immunoblot (results shown in FIG. 12).

PIM2 = biological target: T2, PIM2 (Homo sapiens, UniProt Q9P1W9); experiment: FOXP3 phosphorylation induced by PIM2 in HEK293T cells (immunoblot); settings: Myc-FOXP3 + FLAG-PIM2, 50 μM, 12 h
T2 construct: expressed in transfected cells; host or cells: HEK293T
Method: (§3) Myc-FOXP3, FLAG-PIM1, FLAG-PIM2, and FLAG-PIM3 were co-transfected into HEK293T cells. 36 h later, cells were treated with 50 μM of kaempferol for 12 h. Cells were collected 48 h after cell transfection.
as §1
(§4) HEK293T cells were co-transfected, respectively, with Myc-FOXP3+FLAG-PIM1, Myc-FOXP3+FLAG-PIM2, and Myc-FOXP3+FLAG-PIM3. 36 h later, cells were treated with 50 μM kaempferol for 12 h. After 48 h. cells were collected and lysed with cell lysis buffer.

PIM1 [4] = biological target: T1, PIM1; experiment: FOXP3 S422 phosphorylation induced by PIM1 in HEK293T cells (immunoblot); parameters: expressed in transfected cells; host or cells: HEK293T
Method: Myc-FOXP3 and FLAG-PIM1 were co-transfected into HEK293T cells. After 36 h, cells were treated, respectively, with 50 nM, 10 nM, 2 nM, 0.4 nM of PIM1 inhibitor and 50 μM, 10 μM, 2 μM, 0.4 μM, 0.08 μM of kaempferol for 12 h. Cells were collected at 48 h after cell transfection.
as §3, §2
Protein samples were subjected to SDS-PAGE, and then transferred to nitrocellulose membrane, which was then sealed in TBST containing 5% nonfat dry milk or 3% bovine serum albumin for 1 h. […]
HEK293T cells were transfected with FLAG-PIM1, and co-transfected with MYC-FOXP3 and FLAG-PIM1. […] The levels of pS422-FOXP3, FOXP3, histone H3 Ser10 phosphorylation, histone H3, and GAPDH were directly detected by immunoblot (results shown in FIG. 12).

PIM3 = biological target: T3, PIM3 (Homo sapiens, UniProt Q86V86); experiment: FOXP3 phosphorylation induced by PIM3 in HEK293T cells (immunoblot); settings: Myc-FOXP3 + FLAG-PIM3, 50 μM, 12 h
T3 construct: expressed in transfected cells; host or cells: HEK293T
Method: as §3, §1, §4

[5] = HEK293T transfected with FLAG-PIM1

T1 sequence (P11309 whole entry): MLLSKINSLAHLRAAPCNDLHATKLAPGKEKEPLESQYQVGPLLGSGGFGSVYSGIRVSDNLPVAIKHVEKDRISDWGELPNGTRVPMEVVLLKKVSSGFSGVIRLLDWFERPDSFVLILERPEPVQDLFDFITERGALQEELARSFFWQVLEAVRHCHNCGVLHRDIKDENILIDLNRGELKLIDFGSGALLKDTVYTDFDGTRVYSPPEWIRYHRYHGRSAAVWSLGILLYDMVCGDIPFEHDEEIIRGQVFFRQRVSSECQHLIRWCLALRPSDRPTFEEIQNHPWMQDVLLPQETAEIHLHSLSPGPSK
T2 sequence (Q9P1W9 whole entry): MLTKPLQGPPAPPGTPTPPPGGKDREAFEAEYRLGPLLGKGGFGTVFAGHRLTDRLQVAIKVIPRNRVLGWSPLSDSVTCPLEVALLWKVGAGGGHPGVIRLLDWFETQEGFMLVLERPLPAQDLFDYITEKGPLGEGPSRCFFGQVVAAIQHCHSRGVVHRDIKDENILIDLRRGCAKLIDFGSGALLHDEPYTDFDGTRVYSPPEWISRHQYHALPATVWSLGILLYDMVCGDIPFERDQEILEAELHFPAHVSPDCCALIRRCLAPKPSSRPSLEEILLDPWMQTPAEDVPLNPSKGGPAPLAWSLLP

In the case of `O=c1c(O)c(-c2ccc(O)cc2)oc2cc(O)cc(O)c12` [kaempferol], the “CLTA4+ FOXP3+ Treg cell levels” value [1] is reported as “significantly increase”, the FOXP3 expression levels [1] is reported as “significantly increase” and the FOXP3 protein degradation [2] is reported as “can inhibit”. For the same compound, the PIM1 expression levels (PIM1 [3]; [5]) was “does not affect”, the “histone H3 S10 phosphorylation induced by PIM1” value (PIM1 [3]; [5]) was “inhibits; also recorded: can inhibit” and the “histone H3 S10 phosphorylation in the control group” value (PIM1 [3]; HEK293 blank control group (no PIM1 transfection)) was “does not affect”. For the same compound, the “FOXP3 phosphorylation levels induced by PIM2” value (PIM2) was “does not affect”, the “FOXP3 S422 phosphorylation, dose response” value (PIM1 [4]; MYC-FOXP3 + FLAG-PIM1, 50, 10, 2, 0.4, 0.08 μM for 12 h) was “inhibits FOXP3 S422 phosphorylation in a dose-dependent manner” and the “FOXP3 S422 phosphorylation induced by PIM1” value (PIM1 [4]; Myc-FOXP3 + FLAG-PIM1, 50 μM, 12 h) was “specifically inhibits; also recorded: can inhibit”. The “FOXP3 phosphorylation levels induced by PIM3” value (PIM3) was “does not affect”.
